According to publication PMC6268586, “Effect of Wine and Vinegar Processing of Rhizoma Corydalis on the Tissue Distribution of Tetrahydropalmatine, Protopine and Dehydrocorydaline in Rats” (Molecules, 2012):
Where two headings read alike, the source gives them in different places.

Assay: Tissue distribution of THP, DHC and protopine in rat tissues after gastric gavage administration (HPLC-UV, non-compartmental analysis)
Assay type: in vivo, Wistar male rats
Settings: for AUC(0-t) / Cmax / MRT / Tmax: male, Wistar, po, 6.45 mg/kg; for AUC(0-t): read-out: AUC0–24 h of THP; for Cmax: read-out: Cmax of THP; for MRT: read-out: MRT of THP; for Tmax: read-out: Tmax of THP
Procedure: The experimental protocol was approved by the University's Animal Ethics Committee. […] Rats had unlimited access to water. Standard food was given until 12 h before the experiments. Rhizoma Corydalis was processed according to Pharmacopoeia of Chinese Medicine and National Guideline of Traditional Chinese Medicinal Plants Processing. Briefly, fresh Rhizoma Corydalis was boiled in water till the pith turn light brown color. Cooked rhizome was sliced into pieces (4 mm, diameter) and dried at 25 °C. Dried slices were mixed with edible vinegar (100:20, rhizome/vinegar, w/v) or yellow wine (100:10, rhizome/wine, w/v) and the slices allowed to completely absorb the vinegar or wine. The soaked slices were then stir-fried in a metallic pan over a low flame till they were completely dry. The processed Rhizoma Corydalis was added with 70% ethanol (1:30 w/v) and sonicated for 1 h at room temperature. The extract was then concentrated to remove the ethanol residue and stored at 4 °C for further use. […] The ethanol extract of the unprocessed Rhizoma Corydalis and THP, DHC and protopine pure compound were used as the controls. Three hundred and sixty healthy rats were used in total and are divided into six groups (Group 1-6, sixty rats per group). Drugs were administrated by gastric gavage method. In order to keep the dose of THP, DHC and protopine constant in each group, the amount of ethanol extract of Rhizoma Corydalis administrated was normalized based on the dose of protopine pure compound used. The dose of THP and DHC pure compound administrated was same with that in the ethanol extract of Rhizoma Corydalis. The details were listed below. […] Rats were administrated with the 70% ethanol extract of unprocessed Rhizoma Corydalis at a dose of 17.75 g extract/kg body weight. […] Rats received the extract of vinegar-processed Rhizoma Corydalis at a dose of 15 g extract/kg rat body weight. Group 3: Rats were administrated with the extract of wine processed Rhizoma Corydalis at a dose of 15.78 g extract/kg body weight. […] Rats received THP pure compound at a dose of 6.45 mg/kg body weight. Group 6: Rats were administrated 26.10 mg of DHC pure compound/kg body weight. […] Brian tissue was further dissected into six parts: cerebrum, cerebellum, diencephalons, brain stem, hippocampus and striatum. All the tissue samples were rinsed with ice-old saline and stored at -20 °C until extraction. Tissue samples were homogenized in three volumes of ice-cold biological saline and centrifuged for 10 min at 10,000 g and 4 °C. An aliquot of the supernatant (0.5 mL) was collected. Liquid-liquid extraction was used to extract THP, DHC and protopine. One hundred microliter of 1.0 μg/mL nuciferin (internal standard) was mixed with 0.5 mL aliquots of the supernatant. […] The supernatant was evaporated completely under the nitrogen stream in a 60 °C water bath. The residue was redissolved in 100 μL of methanol. A CoMetro HPLC system (CoMetro Technology Ltd, South […], NJ, USA) with 6000 PVW detector UV-VIS detector was used. […] Ltd., Liaoning, China). Other chromatographic conditions were: column temperature, 35 °C; mobile phase, acetonitrile-0.1% phosphoric acid (pH 3.0) (30:70 v/v); flow rate, 1 mL/min; wavelength, 280 nm. Pharmacokinetic parameters were estimated by non-compartmental analysis using Equiv Test/PK (Statistical Solutions Ltd., Saugus, MA, USA). The maximum concentration (Cmax) and the time to reach the maximum concentration (Tmax) were directly obtained from the observed value. All data were represented as mean ± SD. Comparison of values between groups was performed using one-way ANOVA followed by Tukey's test for comparisons among four groups.

AUC(0-t) (rat brainstem): 1490 ± 340 ng·h/mL
Cmax (rat brainstem): 370 ± 110 ng/mL
MRT (rat brainstem): 7.53 ± 0.26 h
Tmax (rat brainstem): 0.25 h
AUC(0-t) (rat cerebellum): 990 ± 220 ng·h/mL
Cmax (rat cerebellum): 150 ± 30 ng/mL
MRT (rat cerebellum): 9.2 ± 0.61 h
Tmax (rat cerebellum): 0.26 ± 0.02 h
AUC(0-t) (rat cerebrum): 860 ± 200 ng·h/mL
Cmax (rat cerebrum): 250 ± 72 ng/mL
MRT (rat cerebrum): 8 ± 0.25 h
Tmax (rat cerebrum): 0.26 ± 0.01 h
AUC(0-t) (rat diencephalons): 1670 ± 380 ng·h/mL
Cmax (rat diencephalons): 460 ± 130 ng/mL
MRT (rat diencephalons): 7.7 ± 0.28 h
Tmax (rat diencephalons): 0.27 ± 0.04 h
AUC(0-t) (rat heart): 1430 ± 320 ng·h/mL
Cmax (rat heart): 600 ± 180 ng/mL
MRT (rat heart): 4.83 ± 0.13 h
Tmax (rat heart): 0.25 h
AUC(0-t) (rat hippocampus): 1790 ± 400 ng·h/mL
Cmax (rat hippocampus): 470 ± 130 ng/mL
MRT (rat hippocampus): 7.04 ± 0.23 h
Tmax (rat hippocampus): 0.24 ± 0.05 h
AUC(0-t) (rat kidney): 6270 ± 1430 ng·h/mL
Cmax (rat kidney): 2050 ± 570 ng/mL
MRT (rat kidney): 4.37 ± 0.1 h
Tmax (rat kidney): 0.33 ± 0.09 h
AUC(0-t) (rat liver): 5570 ± 2600 ng·h/mL
Cmax (rat liver): 7840 ± 1740 ng/mL
MRT (rat liver): 3.99 ± 0.08 h
Tmax (rat liver): 0.21 ± 0.01 h
AUC(0-t) (rat lung): 5930 ± 1320 ng·h/mL
Cmax (rat lung): 1530 ± 450 ng/mL
MRT (rat lung): 5.34 ± 0.15 h
Tmax (rat lung): 0.26 ± 0.08 h
AUC(0-t) (rat spleen): 3270 ± 740 ng·h/mL
Cmax (rat spleen): 1540 ± 450 ng/mL
MRT (rat spleen): 4.34 ± 0.09 h
Tmax (rat spleen): 0.23 h
AUC(0-t) (rat striatum): 2470 ± 570 ng·h/mL
Cmax (rat striatum): 720 ± 210 ng/mL
MRT (rat striatum): 7.69 ± 0.26 h
Tmax (rat striatum): 0.21 ± 0.03 h
elimination of THP from the tissues (rat tissues): rarely found after 8 h
time after administration at which THP was detected in all the tissues examined (rat tissues): ≤ 5 min
SMILES: COc1cc2c(cc1OC)[C@@H]1Cc3ccc(OC)c(OC)c3CN1CC2 [THP, tetrahydropalmatine]
